In US8597700B2, “Method of treating osteoporosis with extract of Dioscorea sp” (National Yang-Ming University, priority 2002, dated 2013):
Marks after values point to notes of the source that are not given here.

Tests used:
[1] = tested on: bone marrow cells of C3H mice; experiment: Proliferation (MTT) and morphological changes of bone marrow cells in the presence of EGF; format: cell-based, C3H/HeN mice
Procedure: (§1) Under sterile conditions, SPF grade C3H/HeN mice were sacrificed and their femoral bones were injected with a liquid culture of DMEM/F12 to flush out the bone marrow cells. The cells were filtered through sterile No. 53 nylon mesh. The single cell suspension so obtained was mixed with DMEM/F12 culture medium containing N2 to adjust to the proper concentration.
1×10^4 cells/well bone marrow cells of mice obtained in preparatory step 3 were seeded in a 96-well microplate containing DMEM/F12 culture medium with N2 and 10 ng/ml EGF and incubated in a 5% CO2 incubator at 37° C for 24 hrs. The extract and DHEA were added into different wells respectively. Wells containing pure culture medium into which no methanol extract and DHEA were added, and which were subjected to the same incubation procedure, were used as […]. In addition, for use as positive control, the same procedure as that for control was repeated except that 50 ng/ml EGF was used. The proliferation responses were measured by a MTT assay. In accordance with the MTT assay, each of the wells was added with 1 mg/ml MTT solution and, after 4 hours of reaction, MTT lysis buffer (20% SDS-50% DMF) was added thereinto in an amount of 150 μl/well. The resultant mixture was allowed to be reacted for 16 hours. The absorbance was measured at O.D. 570 nm.

[2] = tested on: bone marrow cells of mice; experiment: Proliferation (MTT) and morphologic change of bone marrow cells in the presence of GM-CSF; format: cell-based
Procedure: as §1
1×10^4 cells/well bone marrow cells of mice obtained in preparatory step 3 were seeded in each well of the 96-well microplate, cultured in DMEM/F 12 culture medium containing N2, and 4 ng/ml mGM-CSF. Methanol extracts of Dioscorea sp. with different concentrations were respectively added into the resultant cultured cells in the different wells. The resultant methanol extract containing cultured cells in different wells were then incubated in a 5% CO2 incubator at 37° C. for 14 days. The cells cultured in DMEM/F12 medium containing N2 and 20 ng/ml mGM-CSF is used as positive control. A MTT assay was performed. In this respect, 1 mg/ml MTT solution was added in each well so as to react with the cultured cells therein for 4 hours. MTT lysis buffer (20% SDS-50% DMF) was added in a n amount of 150 μl/well. The resultant mixture was allowed to react for 16 hours. The absorbance was measured at O.D. 570 nm.

osteoprogenitor cells = experiment: Proliferative response of osteoprogenitor cells of mice (MTT assay); format: cell-based, C3H/HeN mice; settings: 0.01 and 0.1 μg/ml, 72 hours
Procedure: Under sterile conditions, femoral bones of the SPF grade of C3H/HeN mouse were obtained and injected with DMEM/F12. The bone marrow cells were flushed out and filtered through No. 53 sterile nylon mesh. The single cell suspension obtained was mixed with DMEM/F12 culture medium containing 15% FCS to adjust the concentration of the cells.
The cells were cultured in DMEM/F12 medium containing 15% FCS, 50 μg/ml ascorbic acid, 10 mM sodium β glycerophosphate and 10 nM dexamethasone in a T-flask for 6 days. The culture medium was renewed every 3 days. The cell concentration was 10^6 cells/cm^2. On the 6th day, the suspended cells and culture medium were drawn out. The adhering cell layer was washed with 1×PBS that had been warmed to room temperature, and then treated with 0.01% EDTA at 37° C. for 5 to 10 minutes. […]
The cells obtained in preparatory step 4 were dispersed using a 22 G gauge needle and suspended in DMEM/F12 medium containing 15% FCS, 50 μg/ml ascorbic acid, 10 mM sodium β-glycerophosphate and 10 nM dexamethazone to form a concentration of 4.5×10^4 cells/ml. […] 1 mg/ml MTT solution was added in each well and reacted for 4 hours MTT lysis buffer (20% SDS-50% DMF) was added in each well in the amount of 150 μl/well and reacted for 16 hours, and the absorbance was measured at O.D. 570 nm for the resultant cell suspension in each well.

Structure (SMILES): C[C@]12CC[C@H](O)CC1=CC[C@@H]1[C@@H]2CC[C@]2(C)C(=O)CC[C@@H]12 [DHEA, Dehydroepiandrosterone]
- Proliferation Index ([1]; 0.0001 μg/ml): 0.99
- Proliferation Index ([1]; 0.001 μg/ml): 0.64
- Proliferation Index ([1]; 0.01 μg/ml): 0.65
- Proliferation Index ([1]; 0.1 μg/ml): 0.67
- Proliferation Index ([1]; 1 μg/ml): 0.70
- Proliferation Index ([2]; 0.0001 μg/ml): 0.99
- Proliferation Index ([2]; 0.001 μg/ml): 1.15
- Proliferation Index ([2]; 0.01 μg/ml): 1.04
- Proliferation Index ([2]; 0.1 μg/ml): 1.13
- Proliferation Index ([2]; 1 μg/ml): 1.11
- Proliferation Index ([2]; 10 μg/ml): 1.19*
- differentiation of bone marrow cells ([2]; 20-week old adult mouse bone marrow cells): enhancing cell differentiation
- proliferation of the osteoprogenitor cells (osteoprogenitor cells): no effect
